Assay results reported in patent US10130693B2, “Peptides, combination of peptides and scaffolds for use in immunotherapeutic treatment of various cancers” (Immatics Biotechnologies GmbH, priority 2015, dated 2018).

Assays:
[1] = tested on: CD8+ T cells; experiment: In vitro immunogenicity: T-cell priming with aAPCs loaded with HLA-A*02 peptide/MHC and anti-CD28, multimer staining; assay type: cell-based, human; conditions: HLA-A*02 peptides
Text: In order to obtain information regarding the immunogenicity of the TUMAPs of the present invention, the inventors performed investigations using an in vitro T-cell priming assay based on repeated stimulations of CD8+ T cells with artificial antigen presenting cells (aAPCs) loaded with peptide/MHC complexes and anti-CD28 antibody.
In order to perform in vitro stimulations by artificial antigen presenting cells loaded with peptide-MHC complex (pMHC) and anti-CD28 antibody, the inventors first isolated CD8+ T cells from fresh HLA-A*02 leukapheresis products via positive selection using CD8 microbeads (Miltenyi Biotec, Bergisch-Gladbach, Germany) of healthy donors obtained from the University clinics Mannheim, Germany, after informed consent.
PBMCs and isolated CD8+ lymphocytes were incubated in T-cell medium (TCM) until use consisting of RPMI-Glutamax (Invitrogen, Karlsruhe, Germany) supplemented with 10% heat inactivated human AB serum (PAN-Biotech, Aidenbach, Germany), 100 U/ml Penicillin/100 μg/ml Streptomycin (Cambrex, Cologne, Germany), 1 mM sodium pyruvate (CC Pro, Oberdorla, Germany), 20 μg/ml Gentamycin (Cambrex). 2.5 ng/ml IL-7 (PromoCell, Heidelberg, Germany) and 10 U/ml IL-2 (Novartis Pharma, Nürnberg, Germany) were also added to the TCM at this step.
(§1) Generation of pMHC/anti-CD28 coated beads, T-cell stimulations and readout was performed in a highly defined in vitro system using four different pMHC molecules per stimulation condition and 8 different pMHC molecules per readout condition.
(§2) The purified co-stimulatory mouse IgG2a anti human CD28 Ab 9.3 (Jung et al., 1987) was chemically biotinylated using Sulfo-N-hydroxysuccinimidobiotin as recommended by the manufacturer (Perbio, Bonn, Germany). Beads used were 5.6 μm diameter streptavidin coated polystyrene particles (Bangs Laboratories, Illinois, USA).
pMHC used for positive and negative control stimulations were A*0201/MLA-001 (peptide […] (SEQ ID NO. 418) from modified Melan-A/MART-1) and A*0201/DDX5-001 ([…] from DDX5, SEQ ID NO. 419), respectively.
(§3) 800.000 beads/200 μl were coated in 96-well plates in the presence of 4×12.5 ng different biotin-pMHC, washed and 600 ng biotin anti-CD28 were added subsequently in a volume of 200 μl. Stimulations were initiated in 96-well plates by co-incubating 1×10^6 CD8+ T cells with 2×10^5 washed coated beads in 200 μl TCM supplemented with 5 ng/ml IL-12 (PromoCell) for 3 days at 37° C. Half of the medium was then exchanged by fresh TCM supplemented with 80 U/ml IL-2 and incubating was continued for 4 days at 37° C. This stimulation cycle was performed for a total of three times. For the pMHC multimer readout using 8 different pMHC molecules per condition, a two-dimensional combinatorial coding approach was used as previously described (Andersen et al., 2012) with minor modifications encompassing coupling to 5 different fluorochromes. Finally, multimeric analyses were performed by staining the cells with Live/dead near IR dye (Invitrogen, Karlsruhe, Germany), CD8-FITC antibody clone SK1 (BD, Heidelberg, Germany) and fluorescent pMHC multimers. For analysis, a BD LSRII SORP cytometer equipped with appropriate lasers and filters was used. Peptide specific cells were calculated as percentage of total CD8+ cells. Evaluation of multimeric analysis was done using the FlowJo software (Tree Star, Oregon, USA). In vitro priming of specific multimer+CD8+ lymphocytes was detected by comparing to negative control stimulations.

[2] = biological target: HLA-A*02:01 (Homo sapiens, UniProt P04439, D140Y/D185E/D98H/E176V/E277Q/G131W/G231S/I119V/I121R/I166T/I218V/L300P/L318F/N151K/N90K/P208A/P217A/Q86G/Q94H/R138H/R169H/T345S); experiment: MHC binding assay, UV-ligand exchange with beta2m ELISA (exchange yield), HLA-A*02; conditions: binding to HLA-A*02 ranged by peptide exchange yield
Method in brief: (§4)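 Peptide–MHC complexes formed by UV-ligand exchange: a UV-cleavable peptide is replaced by the test peptide, and only binders keep the complex stable. Exchange yield read by streptavidin-capture ELISA on reactions diluted 100-fold, detected with HRP anti-β2m (2 ug/ml, 1 h, 37° C) and TMB at 450 nm.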

[3] = tested on: CD8+ T cells; experiment: In vitro immunogenicity: T-cell priming with aAPCs loaded with HLA-A*24 peptide/MHC and anti-CD28, multimer staining; assay type: cell-based, human; conditions: HLA-A*24 peptides
Experimental: CD8+ T cells were primed using artificial APCs coated with anti-CD28 mAb and HLA-A*24 in complex with SEQ ID NO: 99 peptide (FIG. 5A, left panel), SEQ ID NO: 119 peptide (FIG. 5B, left panel), SEQ ID NO: 142 peptide (FIG. 5C, left panel) and SEQ ID NO: 174 peptide FIG. 5 (D, left panel), respectively. After three cycles of stimulation, the detection of peptide-reactive cells was performed by 2D multimer staining with A*24/SEQ ID NO: 99 (FIG. 5A), A*24/SEQ ID NO: 119 (FIG. 5B), A*24/SEQ ID NO: 142 (FIG. 5C) or A*24/SEQ ID NO: 174 (FIG. 5D). Right panels (FIGS. 5A,5B,5C and 5D) show control staining of cells stimulated with irrelevant A*24/peptide complexes. Viable singlet cells were gated for CD8+ lymphocytes. Boolean gates helped excluding false-positive events detected with multimers specific for different peptides. Frequencies of specific multimer+ cells among CD8+ lymphocytes are indicated.
as §1, §2, §3

[4] = tested on: HLA-A*24; experiment: MHC binding assay, UV-ligand exchange with beta2m ELISA (exchange yield), HLA-A*24; design: species or system human; conditions: binding to HLA-A*24, UV-ligand exchange
Method in brief: as §4

Substance | Peptide exchange (MHC class I binding score) [2] | Peptide exchange (MHC class I binding score, peptide exchange yield) [4] | in vitro immunogenicity, Wells positive [%] [1] | in vitro immunogenicity, Wells positive [%] [3]
2 (ALYGKLLKL; listed as Homo sapiens) [compound 2] | +++ (50%-75% = +++) | – | ++++ (>=70% = ++++) | –
7 (AAAAKVPEV; listed as Homo sapiens) [compound 7] | +++ (50%-75% = +++) | – | + (<20% = +) | –
8 (KLGPFLLNA; listed as Homo sapiens) [compound 8] | +++ (50%-75% = +++) | – | +++ (50%-69% = +++) | –
9 (FLGDYVENL; listed as Homo sapiens) [compound 9] | ++ (20%-49% = ++) | – | + (<20% = +) | –
17 (ILHEHHIFL; listed as Homo sapiens) [compound 17] | +++ (50%-75% = +++) | – | + (<20% = +) | –
43 (LLWAGPVTA; listed as Homo sapiens) [compound 43] | +++ (50%-75% = +++) | – | ++++ (>=70% = ++++) | –
322 (ALVSGGVAQA; listed as Homo sapiens) [compound 322] | +++ (50%-75% = +++) | – | + (<20% = +) | –
331 (AIWKELISL; listed as Homo sapiens) [compound 331] | +++ (50%-75% = +++) | – | ++ (20%-49% = ++) | –
345 (EYNSDLHQFF; listed as Homo sapiens) [compound 345] | – | +++ (50%-75% = +++) | – | ++ (20%-49% = ++)
349 (QYSIISNVF; listed as Homo sapiens) [compound 349] | – | +++ (50%-75% = +++) | – | ++ (20%-49% = ++)
350 (KYGNFIDKL; listed as Homo sapiens) [compound 350] | – | +++ (50%-75% = +++) | – | +++ (50%-69% = +++)
351 (IFHEVPLKF; listed as Homo sapiens) [compound 351] | – | +++ (50%-75% = +++) | – | ++ (20%-49% = ++)

Further lines, with some results ahead:

Peptide exchange (MHC class I binding score) [2] | Peptide exchange (MHC class I binding score, peptide exchange yield) [4] | Substance | in vitro immunogenicity, Wells positive [%] [1] | in vitro immunogenicity, Wells positive [%] [3]
– | +++ (50%-75% = +++) | 353 (TYGKIDLGF; listed as Homo sapiens) [compound 353] | – | + (<20% = +)
– | +++ (50%-75% = +++) | 354 (VYNEQIRDLL; listed as Homo sapiens) [compound 354] | – | + (<20% = +)
– | ++++ (>=75% = ++++) | 356 (NYMPGQLTI; listed as Homo sapiens) [compound 356] | – | + (<20% = +)
– | +++ (50%-75% = +++) | 358 (YYSEVPVKL; listed as Homo sapiens) [compound 358] | – | ++++ (>=70% = ++++)
– | ++++ (>=75% = ++++) | 359 (NYGVLHVTF; listed as Homo sapiens) [compound 359] | – | + (<20% = +)
– | +++ (50%-75% = +++) | 360 (VFSPDGHLF; listed as Homo sapiens) [compound 360] | – | ++ (20%-49% = ++)
– | ++ (20%-49% = ++) | 363 (SYAELGTTI; listed as Homo sapiens) [compound 363] | – | + (<20% = +)
– | ++++ (>=75% = ++++) | 365 (VFIDHPVHL; listed as Homo sapiens) [compound 365] | – | + (<20% = +)
– | +++ (50%-75% = +++) | 366 (QYLELAHSL; listed as Homo sapiens) [compound 366] | – | ++ (20%-49% = ++)
– | ++ (20%-49% = ++) | 367 (LYQDHMQYI; listed as Homo sapiens) [compound 367] | – | ++ (20%-49% = ++)
– | ++ (20%-49% = ++) | 371 (AYSHLRYVF; listed as Homo sapiens) [compound 371] | – | ++ (20%-49% = ++)
– | ++++ (>=75% = ++++) | 380 (VYTGIDHHW; listed as Homo sapiens) [compound 380] | – | + (<20% = +)
